{"source": "patent US20140243319A1", "about": "“TREATMENTS TARGETING GAMMA-SYNUCLEIN EXPRESSION LEVELS” (GEORGETOWN UNIVERSITY, priority 2011, published 2014)", "key": {"HCT 116": {"system": "HCT 116", "assay": "MTT cell viability assay in HCT 116 cells", "assay_type": "cell-based", "settings": "Homo sapiens, read-out: IC50 values of cell death"}, "γ-Syn [1]": {"system": "γ-Syn", "assay": "Western blot of γ-Syn protein in brain of WKY rats", "assay_type": "in vivo, rat", "settings": "brains of WKY rats, FIG. 3", "description": "In brain, γ-Syn is expressed in presynaptic terminals of monoaminergic neurons, and our lab has shown that this protein can regulate the function of norepinephrine and serotonin transporters. Unlike α-Syn, whose role in neurodegenerative diseases such as Parkinson's disease is well established, a role for γ-Syn in neurodegeneration is not known. γ-Syn is overexpressed in the frontal cortex of the WKY, a rat model of depression. […] The ability of γ-Syn to bind tightly to MTs may be one mechanism by which its overexpression in carcinomas protects cells from the MT actions of chemotherapeutic agents, for example, taxol, nocodazole, vinblastine and colchicine."}, "[2]": {"system": "cells that did not express any γ-Syn", "assay": "MTT cell death assay in cells that do not express γ-Syn", "assay_type": "cell-based", "settings": "cells without γ-Syn expression, 50 μM DMI"}, "A549": {"system": "A549", "assay": "MTT cell viability assay in A549 cells", "assay_type": "cell-based", "settings": "Homo sapiens, read-out: IC50 values of cell death"}, "γ-Syn [3]": {"system": "γ-Syn", "assay": "Western blot of γ-Syn levels in T47D cells", "assay_type": "cell-based", "settings": "for decrease of γ-Syn levels: 48 h pretreatment, Western blot", "protocol": "Various cancer cell lines were tested for expression of γ-Syn by Western blots. (FIG. 4) Two breast carcinoma cell lines were tested for γ-Syn expression by Western blots, and human brain (hIFG) was used as a positive control."}, "HT-29": {"system": "HT-29", "assay": "MTT cell viability assay in HT-29 cells", "assay_type": "cell-based", "settings": "Homo sapiens, read-out: IC50 values of cell death"}, "[4]": {"system": "cells that expressed γ-Syn", "assay": "MTT cell death assay in cells that express γ-Syn", "assay_type": "cell-based", "description": "Cells were selected that expressed γ-Syn."}, "WKY rats [5]": {"system": "WKY rats", "settings": "rat depression model, Jeannotte et al. 2009; cited from earlier work"}, "HeLa": {"system": "HeLa", "assay": "MTT cell viability assay in HeLa cells", "assay_type": "cell-based", "settings": "Homo sapiens, read-out: IC50 values of cell death"}, "Colo-357": {"system": "Colo-357", "assay": "MTT cell viability assay in Colo-357 pancreatic cancer cells", "assay_type": "cell-based", "settings": "Homo sapiens, COLO357; Colo-357 cells; read-out: IC50 values of cell death"}, "WKY rats [6]": {"system": "WKY rats", "assay": "Depression model, behavior of WKY rats", "assay_type": "in vivo, rat", "settings": "for mobility and climbing behaviors: WKY rats, chronic administration, FIG. 1"}, "γ-Syn [7]": {"system": "γ-Syn", "assay": "γ-Syn protein expression in selected γ-Syn expressing cells", "assay_type": "cell-based", "settings": "48 h", "description": "Cells were selected that expressed γ-Syn. […] We next measured cell death by MTT assays and found a direct correlation between loss of γ-Syn protein expression and cell death."}, "PC cells": {"system": "PC cells", "assay_type": "cell-based", "settings": "DMI at clinically relevant concentrations"}, "γ-Syn [8]": {"system": "γ-Syn", "settings": "rat depression model, Jeannotte et al. 2009; cited from earlier work"}, "MD-MB-231": {"system": "MD-MB-231", "assay": "MTT cell viability assay in MD-MB-231 cells", "assay_type": "cell-based", "settings": "read-out: IC50 values of cell death"}, "SK-BR-3": {"system": "SK-BR-3", "assay": "MTT cell viability assay in SK-BR-3 cells", "assay_type": "cell-based", "settings": "Homo sapiens, read-out: IC50 values of cell death"}, "γ-Syn [9]": {"system": "γ-Syn", "assay": "γ-Syn expression in pancreatic cancer (PC) cells", "assay_type": "cell-based", "settings": "clinically relevant concentrations"}, "T47D cells": {"system": "T47D cells", "assay": "MTT cell viability assay in T47D breast cancer cells"}, "ASPC-1": {"system": "ASPC-1", "assay": "MTT cell viability assay in ASPC-1 pancreatic cancer cells", "assay_type": "cell-based", "settings": "Homo sapiens, ASPC1; ASPC-1 cells; read-out: IC50 values of cell death"}, "DU145": {"system": "DU145", "assay": "MTT cell viability assay in DU145 cells", "assay_type": "cell-based", "settings": "Homo sapiens, DU-145, read-out: IC50 values of cell death"}, "BxPC-3": {"system": "BxPC-3", "assay": "MTT cell viability assay in BxPC-3 pancreatic cancer cells", "assay_type": "cell-based", "settings": "Homo sapiens; BxPC-3 cells; read-out: IC50 values of cell death"}, "[10]": {"settings": "T47D cells, 48 h, 25 μM single agent, MTT"}}}
{"smiles": "CNCCCN1c2ccccc2CCc2ccccc21", "note": "[DMI, desipramine]", "values": [{"measurement": "IC50", "setting": "HCT 116", "result": "43 ± 3", "unit": "µM"}, {"measurement": "γ-Syn protein levels (Western blot)", "setting": "γ-Syn [1]", "result": "reduced levels of γ-Syn protein"}, {"measurement": "γ-Syn protein levels (Western blot)", "setting": "γ-Syn [1]; listed as desipramine", "result": "reduced"}, {"measurement": "cell death (in words)", "setting": "[2]", "result": "no cell death"}, {"measurement": "IC50", "setting": "A549", "result": "> 50", "unit": "µM"}, {"measurement": "γ-Syn levels (in words)", "setting": "γ-Syn [3]; 10 μM and 50 μM", "result": "reduces γ-Syn levels"}, {"measurement": "decrease of γ-Syn levels", "setting": "γ-Syn [3]; 10 μM DMI", "result": 40, "unit": "%"}, {"measurement": "decrease of γ-Syn levels", "setting": "γ-Syn [3]; 50 μM DMI", "result": 85, "unit": "%"}, {"measurement": "IC50", "setting": "HT-29", "result": 38, "unit": "µM"}, {"measurement": "cell death", "setting": "[4]; each compound used alone", "result": "~15", "unit": "%"}, {"measurement": "cell death", "setting": "[4]; γ-Syn expressing cells, 50 μM DMI, MTT", "result": "> 90", "unit": "%"}, {"measurement": "depressive state", "setting": "WKY rats [5]", "result": "relieves their depressive state"}, {"measurement": "IC50", "setting": "HeLa", "result": 43, "unit": "µM"}, {"measurement": "IC50", "setting": "Colo-357", "result": "> 50", "unit": "µM"}, {"measurement": "depressive symptoms", "setting": "WKY rats [6]; WKY rat, chronic treatment for 2 weeks", "result": "relief in the depressive symptoms"}, {"measurement": "mobility and climbing behaviors", "setting": "WKY rats [6]", "result": "improvements in mobility and climbing behaviors"}, {"measurement": "γ-Syn protein expression (in words)", "setting": "γ-Syn [7]; 0-50 μM DMI", "result": "dose-dependent decrease in γ-Syn protein expression"}, {"measurement": "γ-Syn protein expression decreased", "setting": "γ-Syn [7]; 50 μM DMI", "result": "> 85", "unit": "%"}, {"measurement": "cell death", "setting": "PC cells", "result": "> 60", "unit": "%"}, {"measurement": "expression levels of γ-Syn", "setting": "γ-Syn [8]", "result": "reduces expression levels of γ-Syn"}, {"measurement": "IC50", "setting": "MD-MB-231", "result": "> 50", "unit": "µM"}, {"measurement": "IC50", "setting": "SK-BR-3", "result": 40, "unit": "µM"}, {"measurement": "γ-Syn expression (in words)", "setting": "γ-Syn [9]", "result": "reduce γ-Syn expression"}, {"measurement": "cell viability", "setting": "T47D cells; 10 μM of either drug alone", "result": "~80", "unit": "%"}, {"measurement": "cell viability", "setting": "T47D cells; [10]", "result": 58, "unit": "%"}, {"measurement": "cell viability", "setting": "T47D cells; T47D cells, 48 h, 50 μM DMI alone, MTT (data not shown)", "result": "~5", "unit": "%"}, {"measurement": "IC50", "setting": "T47D cells; read-out: IC50 values of cell death, T47D cells", "result": 35, "unit": "µM"}, {"measurement": "IC50", "setting": "ASPC-1", "result": "> 50", "unit": "µM"}, {"measurement": "IC50", "setting": "DU145", "result": "> 50", "unit": "µM"}, {"measurement": "IC50", "setting": "BxPC-3", "result": "> 50", "unit": "µM"}]}
{"smiles": "NNCCc1ccccc1", "note": "[phenelezine]", "values": [{"measurement": "mobility and climbing behaviors", "setting": "WKY rats [6]", "result": "improvements in mobility and climbing behaviors"}]}
{"smiles": "CC(=O)O[C@H]1C(=O)[C@@]2(C)[C@H]([C@H](OC(=O)c3ccccc3)[C@]3(O)C[C@H](OC(=O)[C@H](O)[C@@H](NC(=O)c4ccccc4)c4ccccc4)C(C)=C1C3(C)C)[C@]1(OC(C)=O)CO[C@@H]1C[C@@H]2O", "note": "[taxol, Paclitaxel]", "values": [{"measurement": "cell death", "setting": "[4]; each compound used alone", "result": "~15", "unit": "%"}, {"measurement": "cell viability", "setting": "T47D cells; 10 μM of either drug alone", "result": "~80", "unit": "%"}, {"measurement": "sensitivity of cells to taxol (in words)", "setting": "T47D cells; T47D cells expressing γ-Syn", "result": "resistant to taxol treatment"}, {"measurement": "cell viability", "setting": "T47D cells; [10]", "result": 52, "unit": "%"}]}
